PubChem BioAssay AID330 (DTP/NCI, 2004)
“And” between values parts separate entries of the source, which are not always exact repeats. Equal entries are not always repeated. Toxic doses and inconclusive results are not listed. The calls were made as follows: active = survival T/C of 150% or more; inactive = T/C below 125% in these data. Square brackets hold non-standard residues; d marks the D form. Peptide text beside a SMILES is read from it. * marks the point of attachment. ξ: configuration not given here. Boc = CC(C)(C)OC(=O)*; ξP = O=C(O)C1CCCN1

Tested on: P388 leukemia ip, CD2F1 mice, survival T/C
Test: NCI In Vivo Anticancer Drug Screen. Data for tumor model P388 Leukemia (intraperitoneal) in CD2F1 (CDF1) mice
Settings: endpoint: median survival time, higher = longer survival
How it was run: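 Mice carrying the transplanted tumor received test compound or vehicle. Survival was recorded in each group, and the value is the treated-group measurement divided by that of the vehicle-treated control group.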

[1] = dose: 25.0 mg/kg/injection, schedule: Q01DX009 (ip), vehicle: saline with Tween-80
[2] = dose: 50.0 mg/kg/injection, schedule: Q01DX009 (ip), vehicle: saline with Tween-80
[3] = dose: 100.0 mg/kg/injection, schedule: Q01DX009 (ip), vehicle: saline with Tween-80
[4] = dose: 200.0 mg/kg/injection, schedule: Q01DX009 (ip), vehicle: saline with Tween-80
[5] = dose: 50.0 mg/kg/injection, schedule: Q01DX005 (ip), vehicle: saline with Tween-80
[6] = dose: 100.0 mg/kg/injection, schedule: Q01DX005 (ip), vehicle: saline with Tween-80
[7] = dose: 200.0 mg/kg/injection, schedule: Q01DX005 (ip), vehicle: saline with Tween-80
[8] = dose: 50.0 mg/kg/injection, schedule: Q01DX009 (ip), vehicle: saline
[9] = dose: 100.0 mg/kg/injection, schedule: Q01DX009 (ip), vehicle: saline
[10] = dose: 200.0 mg/kg/injection, schedule: Q01DX009 (ip), vehicle: saline
[11] = dose: 50.0 mg/kg/injection, schedule: Q01DX009 (ip), vehicle: Klucel (hydroxypropylcellulose) (HPC)
[12] = dose: 100.0 mg/kg/injection, schedule: Q01DX009 (ip), vehicle: Klucel (hydroxypropylcellulose) (HPC)
[13] = dose: 200.0 mg/kg/injection, schedule: Q01DX009 (ip), vehicle: Klucel (hydroxypropylcellulose) (HPC)
[14] = dose: 60.0 mg/kg/injection, schedule: Q01DX005 (ip), vehicle: saline with Tween-80
[15] = dose: 25.0 mg/kg/injection, schedule: Q01DX009 (ip), vehicle: Klucel (hydroxypropylcellulose) (HPC)
[16] = dose: 25.0 mg/kg/injection, schedule: Q01DX009 (ip), vehicle: saline
[17] = dose: 100.0 mg/kg/injection, schedule: Q04DX002 (ip), vehicle: saline with Tween-80

Measured: T/C

N#C/C(C(=N)c1ccccc1)=C1\SS/C(=C(\C#N)C(=N)c2ccccc2)S1
inactive: dose: 1.56 mg/kg/injection, schedule: Q01DX009 (ip), vehicle: saline with Tween-80 99 % of control and 90 % of control | dose: 3.13 mg/kg/injection, schedule: Q01DX009 (ip), vehicle: saline with Tween-80 99 % of control and 103 % of control | dose: 6.25 mg/kg/injection, schedule: Q01DX009 (ip), vehicle: saline with Tween-80 104 % of control and 86 % of control and 90 % of control | dose: 12.5 mg/kg/injection, schedule: Q01DX009 (ip), vehicle: saline with Tween-80 86 % of control and 97 % of control | [1] 86 % of control | [2] 105 % of control | [3] 107 % of control | [4] 105 % of control

Cc1ccc(C(=Nc2ccccc2)N=P(c2ccccc2)(c2ccccc2)c2ccccc2)cc1
inactive: dose: 25.0 mg/kg/injection, schedule: Q01DX005 (ip), vehicle: saline with Tween-80 103 % of control | [5] 113 % of control and 122 % of control | [6] 120 % of control

Cc1ccc2oc(C(=O)Nc3nnc(-c4ccccc4)s3)cc(=O)c2c1
inactive: [5] 96 % of control | [6] 94 % of control | [7] 94 % of control

CC(/C=N\Nc1ccc(Cl)c(Cl)c1)=N/NC(=O)C[n+]1ccccc1
inactive: dose: 25.0 mg/kg/injection, schedule: Q04DX002 (ip), vehicle: saline 108 % of control | dose: 50.0 mg/kg/injection, schedule: Q04DX002 (ip), vehicle: saline 104 % of control | dose: 100.0 mg/kg/injection, schedule: Q04DX002 (ip), vehicle: saline 102 % of control and 92 % of control

O=C1c2ccccc2C(=O)c2c1cc1cccccc2-1
inactive: dose: 3.13 mg/kg/injection, schedule: Q01DX005 (ip), vehicle: saline with Tween-80 99 % of control | dose: 6.25 mg/kg/injection, schedule: Q01DX005 (ip), vehicle: saline with Tween-80 97 % of control | dose: 12.5 mg/kg/injection, schedule: Q01DX005 (ip), vehicle: saline with Tween-80 90 % of control and 91 % of control | [5] 89 % of control | [7] 95 % of control

COC(=O)C1CCCN1C(=O)CNC(=O)OC(C)(C)C (stereo not drawn) (Boc-Gly-[ξP]-OMe)
inactive: [8] 105 % of control | [9] 99 % of control | [10] 99 % of control | dose: 400.0 mg/kg/injection, schedule: Q01DX009 (ip), vehicle: saline 90 % of control

[N-]=[N+]=N[Si](c1ccccc1)(c1ccccc1)c1ccccc1
inactive: [11] 103 % of control | [12] 101 % of control | [13] 103 % of control

CCOP1(OCC)(SSC)OC(=O)C(C)S1 (stereo not drawn)
inactive: dose: 5.0 mg/kg/injection, schedule: Q01DX005 (ip), vehicle: saline with Tween-80 108 % of control | dose: 10.0 mg/kg/injection, schedule: Q01DX005 (ip), vehicle: saline with Tween-80 101 % of control | dose: 20.0 mg/kg/injection, schedule: Q01DX005 (ip), vehicle: saline with Tween-80 108 % of control | [14] 94 % of control

CC(C)c1ccc(C(CC(=O)C(C)(C)C)C(C(=O)O)c2ccc([N+](=O)[O-])cc2)cc1 (stereo not drawn)
inactive: [11] 109 % of control | [12] 108 % of control

COc1cccc2c(NCCCCCO[N+](=O)[O-])cc[n+](C)c12
inactive: dose: 12.5 mg/kg/injection, schedule: Q01DX009 (ip), vehicle: Klucel (hydroxypropylcellulose) (HPC) 104 % of control | [15] 110 % of control | [11] 107 % of control

COc1nc(Nc2cccc(F)c2)nc(OC)n1
inactive: [11] 98 % of control | [12] 95 % of control | [13] 101 % of control

NC(=Nc1ccccc1)N(c1ccccc1)c1ccc([N+](=O)[O-])cc1
inactive: dose: 7.5 mg/kg/injection, schedule: Q01DX009 (ip), vehicle: saline with Tween-80 92 % of control | dose: 15.0 mg/kg/injection, schedule: Q01DX009 (ip), vehicle: saline with Tween-80 100 % of control | dose: 30.0 mg/kg/injection, schedule: Q01DX009 (ip), vehicle: saline with Tween-80 91 % of control

Nc1n[nH]c(CO)n1
inactive: dose: 6.25 mg/kg/injection, schedule: Q01DX009 (ip), vehicle: saline 95 % of control | dose: 12.5 mg/kg/injection, schedule: Q01DX009 (ip), vehicle: saline 91 % of control | [16] 104 % of control | [8] 99 % of control

O=C1CCSC(=S)N1c1ccc(Cl)c([N+](=O)[O-])c1
inactive: [1] 87 % of control | [16] 97 % of control | [2] 88 % of control | [8] 104 % of control | dose: 50.0 mg/kg/injection, schedule: Q01DX009 (ip), vehicle: suspension in saline 103 % of control | [3] 98 % of control | [9] 97 % of control | dose: 100.0 mg/kg/injection, schedule: Q01DX009 (ip), vehicle: suspension in saline 109 % of control | [4] 115 % of control | [10] 97 % of control

CN(C)/C=N/c1c(C#N)c(-c2ccccc2)c(-c2ccccc2)n1-c1ccccc1
inactive: [2] 97 % of control | [8] 98 % of control | [9] 93 % of control | [4] 96 % of control | [10] 87 % of control

COC1/C=C/OC2(C)Oc3c(C)c(O)c4c(c3C2=O)C(N)=C(Nc2ccccc2)C(=NC(=O)C(C)=CC=CC(C)C(O)C(C)C(O)C(C)C(OC(C)=O)C1C)C4=O (stereo not drawn)
inactive: [15] 97 % of control | [11] 94 % of control | [12] 98 % of control | [13] 86 % of control

COc1cccc2c1C(=O)c1c(O)c3c(c(O)c1C2=O)CC1(O)CC3OC1(C)OC (stereo not drawn)
inactive: dose: 1.56 mg/kg/injection, schedule: Q01DX009 (ip), vehicle: other 104 % of control | dose: 3.13 mg/kg/injection, schedule: Q01DX009 (ip), vehicle: other 100 % of control | dose: 6.25 mg/kg/injection, schedule: Q01DX009 (ip), vehicle: other 96 % of control | dose: 12.5 mg/kg/injection, schedule: Q01DX009 (ip), vehicle: other 106 % of control | dose: 25.0 mg/kg/injection, schedule: Q01DX009 (ip), vehicle: other 106 % of control | dose: 25.0 mg/kg/injection, schedule: Q04DX003 (ip), vehicle: water 101 % of control | dose: 50.0 mg/kg/injection, schedule: Q04DX003 (ip), vehicle: water 100 % of control | dose: 100.0 mg/kg/injection, schedule: Q04DX003 (ip), vehicle: water 100 % of control | dose: 200.0 mg/kg/injection, schedule: Q04DX003 (ip), vehicle: water 103 % of control | dose: 400.0 mg/kg/injection, schedule: Q04DX003 (ip), vehicle: water 99 % of control

COC1(C)O[C@@]2(C)c3ccccc3C(=O)[C@@]2(c2ccccc2)O1 (stereo partly drawn)
inactive: [14] 104 % of control | dose: 120.0 mg/kg/injection, schedule: Q01DX005 (ip), vehicle: saline with Tween-80 97 % of control | dose: 240.0 mg/kg/injection, schedule: Q01DX005 (ip), vehicle: saline with Tween-80 97 % of control

COC1=CC(C)(C)C(=O)S1
inactive: dose: 25.0 mg/kg/injection, schedule: Q04DX002 (ip), vehicle: saline with Tween-80 100 % of control | dose: 50.0 mg/kg/injection, schedule: Q04DX002 (ip), vehicle: saline with Tween-80 96 % of control | [17] 100 % of control

C=C(C)C(=O)O[C@@H]1C/C(C)=C\[C@H](OC(C)=O)C[C@](C)(O)/C=C2/OC(=O)C(COC(C)=O)=C21
inactive: dose: 5.5 mg/kg/injection, schedule: Q01DX005 (ip), vehicle: Klucel (hydroxypropylcellulose) (HPC) 105 % of control and 110 % of control | dose: 11.0 mg/kg/injection, schedule: Q01DX005 (ip), vehicle: Klucel (hydroxypropylcellulose) (HPC) 103 % of control and 109 % of control | dose: 22.0 mg/kg/injection, schedule: Q01DX005 (ip), vehicle: Klucel (hydroxypropylcellulose) (HPC) 122 % of control

C=Cc1ccccc1N/N=C(\Cl)C(=O)OCC
inactive: [17] 108 % of control | dose: 200.0 mg/kg/injection, schedule: Q04DX002 (ip), vehicle: saline with Tween-80 113 % of control
